Test in all cases: NCI-60 cell line screen, 48 h
Experiment [1] concerns 786-0.
Experiment [2] concerns A498.
Experiment [3] concerns A549.
The test system of experiment [4] is CCRF-CEM.
In experiment [5] the test system is COLO 205.
Experiment [6] relates to EKVX.
Experiment [7] deals with HL-60.
Experiment [8] relates to HOP-62.
Experiment [9] deals with M14.
The subject of experiment [10] is MCF7.
Experiment [11] relates to MDA-N.
Experiment [12] concerns Malme-3M.
The test system of experiment [13] is OVCAR-8.
Experiment [14] has as its system SK-MEL-2.
Experiment [15] relates to SNB-75.
Experiment [16] concerns SW-620.
Experiment [17] deals with T47D.
The test system of experiment [18] is TK-10.
Experiment [19] deals with UO-31.
In experiment [20] the test system is HCC 2998.

Experimental findings from ChEMBL document CHEMBL1201862, “PubChem BioAssay data set” (2004) are described below.

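Dose response: 5 concentrations. Exposure: 48 h. Format: 96-well plates. Endpoint: linear interpolation; highest concentration if not reached. The concentration for 50% growth inhibition is given as GI50.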 Active and inactive are the calls of the source. Cut-off read from the data, not from the text of the source: active = GI50 up to about 1.1 µM and inactive = higher.

Consider `O=C(O)c1ccc2c(c1C(=O)O)C(=O)OC2(c1ccc(O)cc1)c1ccc(O)cc1`, for which the GI50 in experiment [1], in [2], in experiment [3], in experiment [4], in experiment [5] and in [6] was > 100 µM (inactive) throughout. For the same compound, the GI50 in experiment [7], in [8], in [9], in experiment [10], in [11] and in experiment [12] was > 100 µM (inactive) in each case. Further, the GI50 in [13], in experiment [14], in experiment [15], in experiment [16], in experiment [17] and in [18] was > 100 µM (inactive) in each case. Besides, the GI50 in experiment [19] was > 100 µM (inactive).

Consider `Cc1csc2nc(-c3ccc(Cl)c([N+](=O)[O-])c3)c(/C=N/NC(=N)N)n12`, for which the GI50 in [1] is 1.49 µM (inactive); in experiment [2], 1.51 µM (inactive); in [3], 1.83 µM (inactive); in experiment [4] it was 1.01 µM (active); in experiment [5] it was 1.15 µM (inactive); in experiment [6], 1.49 µM (inactive). Besides, the GI50 in experiment [7] is 1.7 µM (inactive); in experiment [8] it was 1.61 µM (inactive); in experiment [9] it was 1.74 µM (inactive); in experiment [10], 1.26 µM (inactive); in experiment [11], 1.32 µM (inactive); in [12], 1.9 µM (inactive). Further, the GI50 in experiment [13] was 0.406 µM (active); in experiment [14], 1.22 µM (inactive); in experiment [15], 1.57 µM (inactive); in [16] it was 0.384 µM (active); in [17], 1.81 µM (inactive); in experiment [18], 2.2 µM (inactive). Further, the GI50 in [19] was 1.12 µM (inactive).

For the compound `COc1ccc(CCN2C(=O)CC34C=CC(CC3C2=O)O4)cc1OC` (configuration not stated), the GI50 in experiment [1], in experiment [2], in experiment [3], in [4], in experiment [5] and in [6] was > 100 µM (inactive) each time. For the same compound, the GI50 in experiment [20], in [7], in [8], in [9], in experiment [10] and in experiment [11] was > 100 µM (inactive) each time. Besides, the GI50 in experiment [13], in experiment [14], in experiment [16], in experiment [17], in experiment [18] and in experiment [19] was > 100 µM (inactive) each time.

As to `COC(=O)C1C(=O)C=CN([C@H](C)c2ccccc2)[C@@H]1Cc1ccc(OC)c(OCc2ccccc2)c1I` (some centres not stated), the GI50 in experiment [1] was 16.4 µM (inactive); in experiment [2], 14.5 µM (inactive); in [3], 15.6 µM (inactive); in [4], 24.5 µM (inactive); in experiment [5], 14.9 µM (inactive); in experiment [6] it was 23.6 µM (inactive). In addition, the GI50 in [20] was 14.3 µM (inactive); in [7], 17.3 µM (inactive); in experiment [8] it was 20.4 µM (inactive); in experiment [9], 14.5 µM (inactive); in [10], 17.6 µM (inactive); in [11], 15.6 µM (inactive). The GI50 in experiment [12] was 24.4 µM (inactive); in experiment [13] it was 18.3 µM (inactive); in experiment [14] it was 18.9 µM (inactive); in [16], 27.7 µM (inactive); in [17], 13.8 µM (inactive); in experiment [18], 23.7 µM (inactive). Moreover, in [19], the GI50 is 12 µM (inactive).

On to `CCN(CC)C(=C(C(Cl)=C(Cl)Cl)[N+](=O)[O-])N(CC)CC`, for which the GI50 in experiment [1] is > 100 µM (inactive); in experiment [2], > 100 µM (inactive); in experiment [3], > 100 µM (inactive); in experiment [4], 30.6 µM (inactive); in [5], > 100 µM (inactive); in experiment [6], > 100 µM (inactive). The GI50 in experiment [20] is > 100 µM (inactive); in experiment [7], 29.6 µM (inactive); in experiment [8], > 100 µM (inactive); in experiment [9], 92 µM (inactive); in [10] it was > 100 µM (inactive); in [11], 47.1 µM (inactive). Moreover, the GI50 in [12] is 19.6 µM (inactive); in experiment [13], > 100 µM (inactive); in experiment [15], 22.3 µM (inactive); in [16], 85.9 µM (inactive); in experiment [17], 61.8 µM (inactive); in experiment [18], > 100 µM (inactive). Further, the GI50 in experiment [19] is 30.2 µM (inactive).

Turning to `CC1=NN(c2cccc(Cl)c2)C2(SCC(=O)N2c2nc3ccccc3s2)/C1=C\c1ccccc1` (configuration not stated), the GI50 was 16.6 µM (inactive) in [1]; 23.2 µM (inactive) in experiment [2]; 28.2 µM (inactive) in experiment [4]; 36.4 µM (inactive) in experiment [6]; 14.2 µM (inactive) in [20]; 30.1 µM (inactive) in experiment [7]. In addition, the GI50 in experiment [8] is 22.3 µM (inactive); in experiment [9], 23.7 µM (inactive); in experiment [10] it was 23.6 µM (inactive); in experiment [11], 20.9 µM (inactive); in [13] it was 19.5 µM (inactive); in [14], 22.5 µM (inactive). The GI50 is 86.5 µM (inactive) in experiment [15]; 19.6 µM (inactive) in [16]; 27.1 µM (inactive) in experiment [17]; 40.6 µM (inactive) in [18]; 20.1 µM (inactive) in experiment [19].

In the case of `C[n+]1ccccc1/C=C/c1ccc2c(c1)OCO2`, the GI50 was > 10 µM (inactive) in [1]; > 10 µM (inactive) in experiment [2]; 4.59 µM (inactive) in experiment [3]; > 10 µM (inactive) in experiment [4]; 4.55 µM (inactive) in experiment [5]; > 10 µM (inactive) in experiment [6]. In addition, the GI50 in [20], in experiment [7], in [8], in [9], in experiment [10] and in experiment [11] was > 10 µM (inactive) in each case. The GI50 in experiment [12], in experiment [13], in [14], in [16], in [17] and in [18] was > 10 µM (inactive) each time.

For `CC1(C)C2CC(=O)C1(C)C(O)C2Br` (configuration not stated), the GI50 in [1], in experiment [2], in [3], in [4], in [6] and in [20] was > 100 µM (inactive) throughout. Besides, the GI50 in experiment [7], in [8], in experiment [9], in experiment [10], in experiment [11] and in experiment [12] was > 100 µM (inactive) in each case. Besides, the GI50 in experiment [13], in [14], in experiment [16], in [17], in experiment [18] and in experiment [19] was > 100 µM (inactive) each time.
